In test [1] the test system is Staphylococcus aureus. Nature of the test: Antimicrobial activity against methicillin-resistant Staphylococcus aureus isolate 55 after 24 hrs by macrodilution method. As to conditions: isolate 55, 24 h.
The test system of test [2] is Staphylococcus aureus. The experiment in a line: Antimicrobial activity against methicillin-resistant Staphylococcus aureus isolate 56 grown on brain heart infusion media after 48 hrs by macrodilution method. Conditions: isolate 56, 48 h.
For test [3], the system named is Staphylococcus aureus. The experiment in a line: Antimicrobial activity against heterogenous glycopeptide-intermediate resistant Staphylococcus aureus Mu3-D grown on brain heart infusion media after 48 hrs by tube macrodilution method.
Test [4] has as its system Staphylococcus aureus. Nature of the test: Antimicrobial activity against methicillin-resistant Staphylococcus aureus isolate 55 after 48 hrs by agar dilution method. As to conditions: isolate 55, 48 h.
Test [5] deals with Staphylococcus aureus. The experiment in a line: Antimicrobial activity against methicillin-resistant Staphylococcus aureus isolate 6 by broth microdilution method. (In general: In broth dilution the organism is exposed to a series of concentrations in liquid medium.)
In test [6] the test system is Staphylococcus aureus. Nature of the test: Antimicrobial activity against methicillin-resistant Staphylococcus aureus isolate 56 after 24 hrs by agar dilution method. Conditions: isolate 56, 24 h. In general terms: In agar dilution the substance is mixed into plates at graded concentrations.
Test [7] has as its system Staphylococcus aureus. Nature of the test: Antimicrobial activity against methicillin-resistant Staphylococcus aureus isolate 12 by broth microdilution method.
Test [8] relates to Staphylococcus aureus. The experiment in a line: Antimicrobial activity against methicillin-resistant Staphylococcus aureus isolate 8 by broth microdilution method.
For test [9], the system named is Staphylococcus aureus. The experiment in a line: Antimicrobial activity against glycopeptide-susceptible Staphylococcus aureus NRS3 by tube macrodilution method.
Test [10] relates to Staphylococcus aureus. Nature of the test: Antimicrobial activity against methicillin-resistant Staphylococcus aureus isolate 55 after 48 hrs by macrodilution method. As to conditions: isolate 55, 48 h.
For test [11], the system named is Staphylococcus aureus. The experiment in a line: Antimicrobial activity against methicillin-resistant Staphylococcus aureus isolate 1 by broth microdilution method.
Test [12] deals with Staphylococcus aureus. Nature of the test: Antimicrobial activity against methicillin-resistant Staphylococcus aureus isolate 56 after 48 hrs by macrodilution method. Conditions: isolate 56, 48 h.
Test [13] concerns Staphylococcus aureus. The experiment in a line: Antimicrobial activity against methicillin-resistant Staphylococcus aureus isolate 56 after 24 hrs by macrodilution method. As to conditions: isolate 56, 24 h.
Test [14] concerns Staphylococcus aureus. Nature of the test: Antimicrobial activity against methicillin-resistant Staphylococcus aureus isolate 56 grown on CAMHB media after 48 hrs by tube macrodilution method. Conditions: isolate 56, 48 h.
The subject of test [15] is Staphylococcus aureus. The experiment in a line: Antimicrobial activity against methicillin-resistant Staphylococcus aureus isolate 55 grown on CAMHB media after 48 hrs by tube macrodilution method. As to conditions: isolate 55, 48 h.
Test [16] has as its system Staphylococcus aureus. The experiment in a line: Antimicrobial activity against methicillin-resistant Staphylococcus aureus isolate 55 grown on brain heart infusion media after 48 hrs by macrodilution method. Conditions: isolate 55, 48 h.
Test [17] relates to Staphylococcus aureus. The experiment in a line: Antimicrobial activity against methicillin-resistant Staphylococcus aureus isolate 55 after 24 hrs by agar dilution method. Conditions: isolate 55, 24 h.
Test [18] has as its system Staphylococcus aureus. The experiment in a line: Antimicrobial activity against methicillin-resistant Staphylococcus aureus isolate 56 after 48 hrs by agar dilution method. As to conditions: isolate 56, 48 h.

Converted amounts (≈) assume the structure as drawn. A value given as a limit tells only on which side of the number the result lay.

What is called MIC is the lowest concentration found to suppress growth. The low end stands for a more susceptible organism, the high end for a less susceptible organism. `CN[C@H](CC(C)C)C(=O)N[C@H]1C(=O)N[C@@H](CC(N)=O)C(=O)N[C@H]2C(=O)N[C@H]3C(=O)N[C@H](C(=O)N[C@H](C(=O)O)c4cc(O)cc(O)c4-c4cc3ccc4O)[C@H](O)c3ccc(c(Cl)c3)Oc3cc2cc(c3O[C@@H]2O[C@H](CO)[C@@H](O)[C@H](O)[C@H]2O[C@H]2C[C@](C)(N)[C@H](O)[C@H](C)O2)Oc2ccc(cc2Cl)[C@H]1O` [VANCOMYCIN]: the MIC in the test with Staphylococcus aureus [1] turned out to be 8 µg/mL (≈ 5.52 µM); against Staphylococcus aureus [2], 8 µg/mL (≈ 5.52 µM); against Staphylococcus aureus [3], 4 µg/mL (≈ 2.76 µM); with Staphylococcus aureus [4], 8 µg/mL (≈ 5.52 µM); with Staphylococcus aureus [5], 0.25 µg/mL (≈ 0.173 µM); against Staphylococcus aureus [6], 8 µg/mL (≈ 5.52 µM). Also, the MIC was 0.25 µg/mL (≈ 0.173 µM) with Staphylococcus aureus [7]; 0.25 µg/mL (≈ 0.173 µM) against Staphylococcus aureus [8]; no less than 8 µg/mL in the test with Staphylococcus aureus [9]; 8 µg/mL (≈ 5.52 µM) against Staphylococcus aureus [10]; 0.25 µg/mL (≈ 0.173 µM) against Staphylococcus aureus [11]; 8 µg/mL (≈ 5.52 µM) in the test with Staphylococcus aureus [12]. Also, the MIC with Staphylococcus aureus [13], against Staphylococcus aureus [14], against Staphylococcus aureus [15], in the test with Staphylococcus aureus [16], with Staphylococcus aureus [17] and against Staphylococcus aureus [18] was 8 µg/mL (≈ 5.52 µM) throughout.

The record behind these values is ChEMBL document CHEMBL1687763 (2010).
